Measured values as given in ChEMBL document CHEMBL2095176, “GSK Tuberculosis Screening Data”.
In brackets after ≈: the same amount, converted by molar mass.

How the values were obtained:
physchem [1] = details: buffer, pH 7.4
Description: GSK_TB: GSK in-house hydrophobicity assay at pH7.4 (logD)

physchem [2] = details: octanol/water
Description: GSK_TB: GSK in-house hydrophobicity assay (logP)

physchem [3] = details: phosphate buffered saline, pH 7.4
[4] = tested on: Mycobacterium tuberculosis H37Rv; experiment: microbe, parasite or virus in culture
Description: GSK_TB: Intracellular minimum inhibitory concentration (MIC) H37Rv assay

| Compound | logD (physchem [1]) | logP (physchem [2]) | solubility kinetic (physchem [3]) [µM] | MIC90 [4] [µM] |
| --- | --- | --- | --- | --- |
| N#Cc1nc(-c2ccccc2F)oc1NCCc1ccccc1 | 6.37 | 6.63 | 3 (≈ 0.922 µg/mL) | 2.79 (≈ 0.856 µg/mL) |
| Cc1ccc(C(=O)Nc2nc(-c3ccccn3)cs2)s1 | 4.6 | 4.61 | 15 (≈ 4.52 µg/mL) | 8.41 (≈ 2.54 µg/mL) |
| CCOC(=O)c1cc(-c2csc(Nc3c(C)cc(C)cc3C)n2)on1 | 7.12 | 7.45 | 1 (≈ 0.357 µg/mL) | 4.07 (≈ 1.46 µg/mL) |
| O=C(c1cnn(C(=O)c2ccco2)c1)c1cc(F)ccc1O | – | – | 1 (≈ 0.3 µg/mL) | 9.55 (≈ 2.87 µg/mL) |
| CC(Oc1ccccc1)C(=O)Nc1nc(-c2ccccn2)cs1 (configuration not stated) | 5.07 | 5.06 | 174 (≈ 56.6 µg/mL) | 9.77 (≈ 3.18 µg/mL) |
| c1ccc(-c2nc(N3CCCCCC3)nc(-n3ccnc3)n2)cc1 | – | – | 1 (≈ 0.32 µg/mL) | 7.41 (≈ 2.38 µg/mL) |
| CNc1nc(SC)nc2ccccc12 | – | – | – | 0.2 (≈ 0.0411 µg/mL) |
| Cc1nnc(NCc2cccc(Cl)c2)c2ccccc12 | 4.32 | 4.52 | 127 (≈ 36 µg/mL) | 5.9 (≈ 1.67 µg/mL) |
| O=C(NC1=NCCS1)c1sc2cc(F)ccc2c1Cl | 5.16 | 5.49 | 1 (≈ 0.315 µg/mL) | 8.61 (≈ 2.71 µg/mL) |
| CCc1nnc(NC(=O)c2cccc(C(=O)Nc3nnc(CC)s3)n2)s1 | – | – | 26 (≈ 10.1 µg/mL) | 8 (≈ 3.12 µg/mL) |
| COc1ccc(-c2cc(=O)c3cc(OCC(=O)OC(C)C)ccc3o2)cc1 | 5.91 | 6.29 | – | 2.95 (≈ 1.09 µg/mL) |
| O=C(Nc1nnc(-c2ccc(Cl)cc2)o1)c1cccc(C(F)(F)F)c1 | 4.51 | 6.29 | 1 (≈ 0.368 µg/mL) | 5.62 (≈ 2.07 µg/mL) |
| O=C(Cc1ccc(F)cc1)Nc1nc(-c2ccccn2)cs1 | 4.32 | 4.33 | 14 (≈ 4.39 µg/mL) | 9.3 (≈ 2.91 µg/mL) |
| COc1ccc(-c2cncc(-c3cc(N4CCN(CCO)CC4)nc(-c4ccccc4)n3)c2)cc1 | 5.91 | 6.34 | 1 (≈ 0.468 µg/mL) | 1.45 (≈ 0.676 µg/mL) |
| O=C(O)C(F)(F)F.c1ccc(C[C@H]2CN(c3nccc(Oc4ccc(-n5ccnc5)cc4)n3)CCN2)cc1 | 3.58 | 4.33 | 260 | 1.8 |
| Br.Cc1cc(C)cc(OCCCON2C(=N)N=C(N)NC2(C)C)c1 | 3.2 | 4.72 | 358 | 5.31 |
| Cc1ccc(C2CC(C(F)(F)F)n3ncc(C(=O)NCc4ccc5c(c4)OCO5)c3N2)cc1 (configuration not stated) | – | – | – | 5.4 (≈ 2.48 µg/mL) |
| c1ccc(CCNc2cc(-c3ccccc3)nc3nncn23)cc1 | 4.97 | 5.13 | 6 (≈ 1.89 µg/mL) | 5.5 (≈ 1.73 µg/mL) |
| O=C(O)C(F)(F)F.c1ccc2c(-c3ccc(CNCC4CCNC4)cc3)cncc2c1 (configuration not stated) | 1.52 | 3.02 | 61 | 5.56 |
| Cc1cnc(N2CCN[C@@H](Cc3ccccc3)C2)nc1Oc1ccc(-n2ccnc2)cc1.O=C(O)C(F)(F)F | 4.04 | 5.03 | 228 | 9.23 |
| COc1ccc2cc(C(=O)Nc3ccc(C4CCN(C)CC4)cc3)sc2c1 | 3.11 | 5.93 | 62 (≈ 23.6 µg/mL) | 9.55 (≈ 3.63 µg/mL) |
| Cc1ccc2nc(C)c(C(=O)NCc3cccs3)n2c1 | – | – | – | 0.2 (≈ 0.0571 µg/mL) |
| Nc1cccnc1Nc1ccc(Cl)cc1 | – | – | 94 (≈ 20.6 µg/mL) | 0.232 (≈ 0.0509 µg/mL) |
| COc1ccc2nc(C)cc(OCC(=O)Nc3cc(C)cc(C)c3)c2c1 | – | – | – | 0.3 (≈ 0.105 µg/mL) |

| Compound | logD (physchem [1]) | logP (physchem [2]) | solubility kinetic (physchem [3]) [µM] | MIC90 [4] [µM] |
| --- | --- | --- | --- | --- |
| Cc1cccc(-c2nc(Nc3ccncn3)c3c(C)csc3n2)n1 | – | – | – | 0.3 (≈ 0.1 µg/mL) |
| Nc1nc2cc(-c3cncc(Oc4ccc(F)cc4)c3)ccc2[nH]1.O=C(O)C(F)(F)F.O=C(O)C(F)(F)F | 3.11 | 3.12 | 100 | 0.347 |
| COc1ccc2nc(C)cc(OCC(=O)Nc3ccccc3OC)c2c1 | – | – | – | 0.4 (≈ 0.141 µg/mL) |
| Cc1cc(/C=C/c2cccc(C(=O)O)c2)cc(Cl)c1OC[C@@H]1CCCN1C | – | – | 486 (≈ 188 µg/mL) | 0.457 (≈ 0.176 µg/mL) |
| Cc1ccccc1CN1CCC(O)(c2ccc(Cl)c(C(F)(F)F)c2)CC1 | – | – | 77 (≈ 29.6 µg/mL) | 4.2 (≈ 1.61 µg/mL) |
| N=C(N)c1ccc(CCN2CCC(c3nc(COCC(F)(F)F)c(-c4ccc(F)cc4)o3)CC2)cc1.O=C(O)C(F)(F)F.O=C(O)C(F)(F)F | 3.76 | 6.14 | 255 | 6.17 |
| Nc1ccccc1Nc1ccc2c(c1)OCO2 | – | – | 139 (≈ 31.7 µg/mL) | 1.82 (≈ 0.415 µg/mL) |
| Nc1cccnc1Nc1ccc(C(F)(F)F)cc1 | 4.97 | 5.03 | 328 (≈ 83.1 µg/mL) | 2.24 (≈ 0.567 µg/mL) |
| COc1cccc(-c2nc3c(N4CCCC4)cccc3n2CC2CCCN2)n1.O=C(O)C(F)(F)F (configuration not stated) | – | – | 78 | 9.77 |
| Cn1c(=O)c2c([S+](C)[O-])snc2n(C)c1=O (configuration not stated) | 1.24 | 1.24 | 420 (≈ 109 µg/mL) | 9.77 (≈ 2.53 µg/mL) |
| Cc1cc(OCC(=O)NCc2ccccc2)c2cc(Br)ccc2n1 | 4.97 | 5.13 | 15 (≈ 5.78 µg/mL) | 2.3 (≈ 0.886 µg/mL) |
| c1ccc(SCc2nn3c(-c4ccccc4)nnc3s2)cc1 | 5.44 | 5.78 | 1 (≈ 0.324 µg/mL) | 2.69 (≈ 0.873 µg/mL) |
| Cc1cccc(-c2nc(Nc3ccncn3)c3sccc3n2)n1 | – | – | – | 0.5 (≈ 0.16 µg/mL) |
| CCc1ccc(CN2CCC3(CC2)OCCc2sccc23)s1 | – | – | – | 1 (≈ 0.334 µg/mL) |
| c1cc2c(s1)CCOC21CCN(Cc2ccc3c(c2)OCCO3)CC1 | – | – | – | 1 (≈ 0.357 µg/mL) |
| O=C(NC12CC3CC(CC(C3)C1)C2)c1cc2cc(Cl)ccc2[nH]1 | – | – | – | 1 (≈ 0.329 µg/mL) |
| COc1ccc(Nc2ccccc2NC(=O)c2ccc(O)nc2)cc1 | 2.92 | 2.97 | 362 (≈ 121 µg/mL) | 7.08 (≈ 2.37 µg/mL) |
| Cc1ccc(CNC(=O)c2cnn3c2NC(c2ccc(C)cc2)CC3C(F)F)cc1 (configuration not stated) | 6.84 | 7.09 | 1 (≈ 0.41 µg/mL) | 1.23 (≈ 0.505 µg/mL) |
| CCCCS(=O)(=O)Nc1ccc2cnn(C)c2c1 | 3.48 | 3.58 | 552 (≈ 148 µg/mL) | 1.3 (≈ 0.348 µg/mL) |
| O=C(NC(Cc1ccccc1)C(=O)Nc1ccccc1N1CCOCC1)c1cccs1 (configuration not stated) | 5.53 | 5.78 | 64 (≈ 27.9 µg/mL) | 7.6 (≈ 3.31 µg/mL) |
| O=C(Nc1nnc(-c2ccc(Cl)s2)o1)c1ccc(Cl)s1 | – | – | – | 7.76 (≈ 2.69 µg/mL) |
| CCCOC(=O)COc1ccc2c(=O)c(-c3ccccc3OC)coc2c1 | 6 | 6.24 | – | 7.94 (≈ 2.93 µg/mL) |
| CCc1ccc(C2CC(C(F)(F)F)n3ncc(C(=O)NCc4cccs4)c3N2)cc1 (configuration not stated) | 6.99 | 7.27 | 1 (≈ 0.434 µg/mL) | 4.37 (≈ 1.9 µg/mL) |
| O=C(c1[nH]nc2c1CCCC2)N1CCN(Cc2ccc3c(c2)OCO3)CC1 | – | – | – | 4.5 (≈ 1.66 µg/mL) |

| Compound | logD (physchem [1]) | logP (physchem [2]) | solubility kinetic (physchem [3]) [µM] | MIC90 [4] [µM] |
| --- | --- | --- | --- | --- |
| c1ncn(-c2ccc(COc3ccc(-n4cncn4)cc3)cc2)n1 | – | – | – | 4.73 (≈ 1.51 µg/mL) |
| NC(=O)c1cc(-c2ccsc2)ccc1OCCOc1ccccc1 | 5.44 | 5.78 | 1 (≈ 0.339 µg/mL) | 3.5 (≈ 1.19 µg/mL) |
| Br.CC1(C)NC(N)=NC(=N)N1OCCCOc1ccc(Cl)cc1Cl | 3.39 | 4.83 | 337 | 3.55 |
| O=C(OCc1c(F)cccc1Cl)c1ccc(-n2ncc(Cl)c(Cl)c2=O)cc1 | – | – | 22 (≈ 9.41 µg/mL) | 4.9 (≈ 2.09 µg/mL) |
| CCc1ccc([C@@H]2C[C@H](C(F)(F)F)n3ncc(C(=O)NCc4ccc(OC)cc4)c3N2)cc1 | – | – | – | 4.9 (≈ 2.25 µg/mL) |
| Fc1ccccc1-c1noc(N2CCN(Cc3ccc4c(c3)OCO4)CC2)n1 | 6.56 | 6.94 | 10 (≈ 3.82 µg/mL) | 5.2 (≈ 1.99 µg/mL) |
| CCn1c(=O)c(=O)[nH]c2cc(C(=O)Nc3ccccc3Nc3ccc(OC)cc3)ccc21 | 3.67 | 3.87 | 47 (≈ 20.2 µg/mL) | 8.4 (≈ 3.62 µg/mL) |
| O=C(CCSc1ccc(Cl)cc1)Nc1nc(-c2ccccn2)cs1 | – | – | – | 8.41 (≈ 3.16 µg/mL) |
| O=C(C=Cc1ccccc1)N1CCN(Cc2ccc3c(c2)OCO3)CC1 | 5.16 | 5.44 | – | 3.7 (≈ 1.3 µg/mL) |
| Cc1cc(CN2CCC3(CC2)OCCc2sccc23)oc1C | – | – | 289 (≈ 91.7 µg/mL) | 3.7 (≈ 1.17 µg/mL) |
| CSc1cccc(C(=O)Nc2nc(-c3ccccn3)cs2)c1 | 5.25 | 5.26 | 12 (≈ 3.93 µg/mL) | 3.72 (≈ 1.22 µg/mL) |
| CSc1ccc(C(=O)Nc2nc(-c3ccccn3)cs2)cc1 | 5.07 | 5.06 | – | 8.71 (≈ 2.85 µg/mL) |
| COc1ccc(CCNc2cc(-c3ccccc3)nc3ncnn23)cc1 | – | – | – | 0.6 (≈ 0.207 µg/mL) |
| Br.CCc1ccccc1OCCCON1C(=N)N=C(N)NC1(C)C | 3.3 | 4.83 | 225 | 3.2 |
| Br.CC1(C)N=C(N)N=C(N)N1OCCc1ccc2ccccc2c1 | 2.92 | 4.23 | 201 | 2.32 |
| Br.CCCc1cc(C(C)=O)ccc1OCCCON1C(=N)N=C(N)NC1(C)C | 2.92 | 4.02 | 201 | 2.34 |
| Cc1cc(NCCc2ccccc2)nc(NC(=N)Nc2ccc(Cl)cc2)n1 | 4 | 6.74 | 73 (≈ 27.8 µg/mL) | 2.37 (≈ 0.903 µg/mL) |
| Br.Cc1ccccc1OCCCON1C(=N)N=C(N)NC1(C)C | 2.83 | 3.92 | 436 | 3.76 |
| c1cncc(NCc2ccc(-c3cc4ccncc4cc3OC3CCNCC3)s2)c1 | 1.9 | 4.23 | 167 (≈ 69.6 µg/mL) | 8.61 (≈ 3.59 µg/mL) |
| Clc1ccc(Nc2nc(-c3ccccn3)cs2)nc1 | 5.35 | 6.53 | – | 5.9 (≈ 1.7 µg/mL) |
| Cc1csc2nc(-c3ccccn3)nc(Nc3ccncn3)c12.O=C(O)C(F)(F)F | – | – | 231 | 1.7 |
| Br.CC(C)(C)c1ccccc1OCCCON1C(=N)N=C(N)NC1(C)C | 4.04 | 6.14 | 363 | 2.3 |
| CSc1ccccc1C(=O)Nc1nc(-c2ccccn2)cs1 | – | – | – | 1.74 (≈ 0.569 µg/mL) |
| Cn1cc(NC(=O)c2cc(NC(=O)CNC(=N)N)cn2C)cc1C(=O)NCCC(=N)N [NETROPSIN CHLORIDE] | – | – | – | 6.46 |
